pIC50: −log10 of the molar value.
Tested on: KRAS-mutant PDC multicell tumor spheroid viability
Experiment: Anticancer human tumor 521955-158-R2-J5-PDC patient-derived pancreatic carcinoma cell line growth inhibition [KRAS2]
Conditions: for pIC50: curve of first compound; for viability, T/C: stronger effect = lower value; for IC50: compound alone
Text: Multicellular complex tumor spheroid response to RAS pathway inhibitors in combination with a targeted agents in patient-derived cell lines with oncogenic KRAS variants from multiple cancer types
A high-throughput screen of multi-cell type tumor spheroids was designed to identify active combinations of targeted small molecules and KRAS pathway inhibitors. Complex spheroids include a stromal component modeled by human endothelial cells (HUVEC) and fibroblasts modeled by human mesenchymal stem cells (MSCs). The concentration ranges selected for each drug and investigational agent were based upon clinically achievable concentrations if the clinical Cmax of the agent was known.
Compounds. The drugs and investigational agents: BI-3406 (NSC825286), BAY-293 (NSC824723), batoprotafib (TNO155; NSC825523), sotorasib (AMG 510; NSC818433), MRTX1257 (NSC819558), elimusertib (BAY 1895344; NSC800525), molibresib (GSK525762; NSC774829), temuterkib (LY3214996; NSC803410), venetoclax (NSC766270), alisertib (NSC759677), olaparib (NSC753686), talazoparib (NSC767125), erdafitinib (NSC781556), ipatasertib (NSC767898), cabozantinib (NSC761068), nintedanib (NSC756659), abemaciclib (NSC768073), docetaxel (NSC628503), trametinib (NSC758246), and sapanisertib (NSC764658) were obtained from the National Cancer Institute (NCI) Developmental Therapeutics Program Chemical Repository. The FDA-approved anticancer drug set is available from the Developmental Therapeutics Program. […] The stock solutions were prepared in dimethyl sulfoxide (DMSO, Sigma-Aldrich, St. Louis, MO, cat. D2650) at 800-fold the tested concentration and stored at -70 degrees C prior to their use. All drugs and investigational agents were tested over a range starting from a high concentration at or near the clinical Cmax and decreasing in half-log increments. If the clinical Cmax for an agent had not been determined, the highest concentration tested was 10 microM.
Cell Culture. All cells were maintained in an incubator at 37 degrees C and 5% CO2 with 95% humidity. The PDC lines were cultured according to standard operating procedures established by the NCI PDMR (https://pdmr.cancer.gov/sops/default.htm). Briefly, all PDCs were thawed and cultured in Matrigel-coated flasks prepared with a working solution of 1X Ham's F-12 nutrient mix, without supplementation (Invitrogen, Waltham, MA, cat. 11765054), 100 U/mL penicillin-streptomycin (Invitrogen, cat. 15140122), and 2.5% Matrigel (Corning Inc., Corning, NY, cat. 354248) for the first three passages. All PDCs were cultured in complete DMEM/F-12 media containing advanced DMEM/F-12 (Invitrogen, cat. 12634028), 4.9% defined fetal bovine serum, heat inactivated (HyClone Laboratories Inc., Logan, UT, cat. SH30070.03HI), 389 ng/mL hydrocortisone (Sigma-Aldrich, cat. H4001), 9.7 ng/mL human EGF recombinant protein (Invitrogen, cat. PHG0313), 23.4 microg/mL adenine (Sigma-Aldrich, cat. A2786), 97.3 U/mL penicillin-streptomycin (Invitrogen, cat. 15140122), 1.9 mM L-glutamine (Invitrogen, cat. 25030081), and 9.7 microM Y-27632 dihydrochloride (Tocris Bioscience, Bristol, United Kingdom, cat. 1254). The PDCs were cultured in complete DMEM/F12 media without 9.7 microM Y-27632 dihydrochloride for at least two passages prior to the screen. The established cell line HOP-62 was cultured in RPMI 1640 medium, HEPES (Invitrogen, cat. 22400105) with 10% defined fetal bovine serum (HyClone Laboratories Inc., cat. SH30070.03) and 2 mM L-glutamine (Invitrogen, cat. 25030081). The pooled donor HUVEC were cultured in endothelial cell growth medium 2 (PromoCell, Heidelberg, Germany, cat. C-22011) and the hMSC were cultured in mesenchymal stem cell growth medium 2 (PromoCell, cat. C-28009). For all experiments, HUVEC and hMSC were used at passages </=5, while the malignant cell lines were used at passages </=15. […]

[1] = second compound 0.1 µM, first compound 0.000316 µM
[2] = second compound 0.1 µM, first compound 0.001 µM
[3] = second compound 0.1 µM, first compound 0.00316 µM
[4] = second compound 0.1 µM, first compound 0.01 µM
[5] = second compound 0.1 µM, first compound 0.0316 µM
[6] = second compound 0.1 µM, first compound 0.1 µM
[7] = second compound 0.316 µM, first compound 0.000316 µM
[8] = second compound 0.316 µM, first compound 0.001 µM
[9] = second compound 0.316 µM, first compound 0.00316 µM
[10] = second compound 0.316 µM, first compound 0.01 µM
[11] = second compound 0.316 µM, first compound 0.0316 µM
[12] = second compound 0.316 µM, first compound 0.1 µM
[13] = second compound 1 µM, first compound 0.000316 µM
[14] = second compound 1 µM, first compound 0.001 µM
[15] = second compound 1 µM, first compound 0.00316 µM
[16] = second compound 1 µM, first compound 0.01 µM
[17] = second compound 1 µM, first compound 0.0316 µM
[18] = second compound 1 µM, first compound 0.1 µM
[19] = second compound 3.16 µM, first compound 0.000316 µM
[20] = second compound 3.16 µM, first compound 0.001 µM
[21] = second compound 3.16 µM, first compound 0.00316 µM
[22] = second compound 3.16 µM, first compound 0.01 µM
[23] = second compound 3.16 µM, first compound 0.0316 µM
[24] = second compound 3.16 µM, first compound 0.1 µM
[25] = second compound 10 µM, first compound 0.000316 µM
[26] = second compound 10 µM, first compound 0.001 µM
[27] = second compound 10 µM, first compound 0.00316 µM
[28] = second compound 10 µM, first compound 0.01 µM
[29] = second compound 10 µM, first compound 0.0316 µM
[30] = second compound 10 µM, first compound 0.1 µM
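Further: viability read after seven days of drug exposure.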

Structure (SMILES)	pIC50 (second compound 0.1 µM)	pIC50 (second compound 0.316 µM)	pIC50 (second compound 1 µM)	pIC50 (second compound 3.16 µM)	pIC50 (second compound 10 µM)	viability, T/C [3] [%]	viability, T/C [4] [%]	viability, T/C [5] [%]	viability, T/C [9] [%]	viability, T/C [10] [%]	viability, T/C [11] [%]	viability, T/C [15] [%]	viability, T/C [16] [%]	viability, T/C [17] [%]	viability, T/C [21] [%]	viability, T/C [22] [%]	viability, T/C [23] [%]	viability, T/C [27] [%]	viability, T/C [28] [%]	viability, T/C [29] [%]	further results
CN(C)C/C=C/C(=O)Nc1cc2c(Nc3ccc(F)c(Cl)c3)ncnc2cc1O[C@H]1CCOC1 + CC1OCC2(CCN(c3cnc(Sc4ccnc(N)c4Cl)c(N)n3)CC2)C1N	< 7.00	< 7.00	< 7.00	> 9.50	< 7.00	56.3	73.4	81.9	57.3	57.6	63.5	85.3	75.5	78.6	37.2	49	65.2	85.8	79.9	80.8	viability, T/C [1]: 71.7%; viability, T/C [2]: 66.5%; viability, T/C [6]: 59.3%; viability, T/C [7]: 60.5%; viability, T/C [8]: 70.3%; viability, T/C [12]: 58.2%; viability, T/C [13]: 112%; viability, T/C [14]: 107%; viability, T/C [18]: 73.1%; viability, T/C [19]: 28%; viability, T/C [20]: 37%; viability, T/C [24]: 64.5%; viability, T/C [25]: 105%; viability, T/C [26]: 90%; viability, T/C [30]: 80.3%
CCN1CCN(Cc2ccc(Nc3ncc(F)c(-c4cc(F)c5nc(C)n(C(C)C)c5c4)n3)nc2)CC1 + CNCc1ccccc1-c1csc(C(C)Nc2nc(C)nc3cc(OC)c(OC)cc23)c1	< 6.00	< 6.00	6.20	> 8.50	> 8.50	107	97.5	94.4	120	108	89.6	116	111	117	2.02	0.33	0.25	0.21	0.26	0.29	viability, T/C [6]: 89.5%; viability, T/C (second compound 0.1 µM, first compound 0.316 µM): 108%; viability, T/C (second compound 0.1 µM, first compound 1 µM): 94.9%; viability, T/C [12]: 107%; viability, T/C (second compound 0.316 µM, first compound 0.316 µM): 103%; viability, T/C (second compound 0.316 µM, first compound 1 µM): 93.4%; viability, T/C [18]: 95.3%; viability, T/C (second compound 1 µM, first compound 0.316 µM): 119%; viability, T/C (second compound 1 µM, first compound 1 µM): 7.8%; viability, T/C [24]: 0.25%; viability, T/C (second compound 3.16 µM, first compound 0.316 µM): 0.17%; viability, T/C (second compound 3.16 µM, first compound 1 µM): 0.6%; viability, T/C [30]: 0.24%; viability, T/C (second compound 10 µM, first compound 0.316 µM): 0.21%; viability, T/C (second compound 10 µM, first compound 1 µM): 0.26%
C=CC(=O)N1CCN(c2nc(OCC3CCCN3C)nc3c2CCN(c2cccc4cccc(C)c24)C3)CC1CC#N (configuration not stated)	–	–	–	–	–	–	–	–	–	–	–	–	–	–	–	–	–	–	–	–	IC50 (run of 08/26/2021): 1.71 µM [middle of 5 runs]; IC50 (run of 09/02/2021): 1.82 µM [middle of 6 runs]
CC(=O)Nc1cccc(-n2c(=O)n(C3CC3)c(=O)c3c(Nc4ccc(I)cc4F)n(C)c(=O)c(C)c32)c1 + COc1cc2nc(C)nc(NC(C)c3cc(N)cc(C(F)(F)F)c3)c2cc1OC1CCOC1	9.59	9.68	9.67	9.59	> 10.00	26.2	16.3	12.7	24.8	16.7	8.98	19.9	18.1	7.44	21.8	16.8	5.44	11.3	3.5	1.26	viability, T/C (second compound 0.1 µM, first compound 0.0001 µM): 68.5%; viability, T/C [1]: 48%; viability, T/C [2]: 26.1%; viability, T/C (second compound 0.316 µM, first compound 0.0001 µM): 58.5%; viability, T/C [7]: 46.4%; viability, T/C [8]: 30.6%; viability, T/C (second compound 1 µM, first compound 0.0001 µM): 65.2%; viability, T/C [13]: 39.3%; viability, T/C [14]: 31.4%; viability, T/C (second compound 3.16 µM, first compound 0.0001 µM): 63.6%; viability, T/C [19]: 46.9%; viability, T/C [20]: 33.5%; viability, T/C (second compound 10 µM, first compound 0.0001 µM): 33%; viability, T/C [25]: 37.1%; viability, T/C [26]: 26.8%

From PubChem BioAssay AID1963871 (Molecular Pharmacology Branch, DTP, NCI, 2024)
